The test system of the assay is T1, GmSULTR1;2b.
T1 construct: C-terminal STAS domain
Put plainly: […]-sulfate uptake in sul1 sul2 yeast cells, Michaelis-Menten fit. Particulars: pH 6.0; proton-coupled uptake; yeast CP154-7A; labelled compound. The class given is cell-based, Glycine max.

As a reminder, the Km is the substrate concentration at which the rate is half of its maximum. As to `O=S(=O)(O)O` [sulfate], the Michaelis-Menten constant (Km) was 9.5 ± 1.7 µM.

The record behind these values is PMC4874011, “Identification and functional characterization of the sulfate transporter gene GmSULTR1;2b in soybean” (BMC Genomics, 2016).
